In paper PMC3914206:

Tests used:
Type in all cases: binding
panel of 442 kinases [1] = biological target: T1, panel of 442 kinases (Homo sapiens, UniProt P36888); settings: Compound Concentration 10 µM
T1 construct: purchased KINOMEscan
T1 sequence (P36888 27-993): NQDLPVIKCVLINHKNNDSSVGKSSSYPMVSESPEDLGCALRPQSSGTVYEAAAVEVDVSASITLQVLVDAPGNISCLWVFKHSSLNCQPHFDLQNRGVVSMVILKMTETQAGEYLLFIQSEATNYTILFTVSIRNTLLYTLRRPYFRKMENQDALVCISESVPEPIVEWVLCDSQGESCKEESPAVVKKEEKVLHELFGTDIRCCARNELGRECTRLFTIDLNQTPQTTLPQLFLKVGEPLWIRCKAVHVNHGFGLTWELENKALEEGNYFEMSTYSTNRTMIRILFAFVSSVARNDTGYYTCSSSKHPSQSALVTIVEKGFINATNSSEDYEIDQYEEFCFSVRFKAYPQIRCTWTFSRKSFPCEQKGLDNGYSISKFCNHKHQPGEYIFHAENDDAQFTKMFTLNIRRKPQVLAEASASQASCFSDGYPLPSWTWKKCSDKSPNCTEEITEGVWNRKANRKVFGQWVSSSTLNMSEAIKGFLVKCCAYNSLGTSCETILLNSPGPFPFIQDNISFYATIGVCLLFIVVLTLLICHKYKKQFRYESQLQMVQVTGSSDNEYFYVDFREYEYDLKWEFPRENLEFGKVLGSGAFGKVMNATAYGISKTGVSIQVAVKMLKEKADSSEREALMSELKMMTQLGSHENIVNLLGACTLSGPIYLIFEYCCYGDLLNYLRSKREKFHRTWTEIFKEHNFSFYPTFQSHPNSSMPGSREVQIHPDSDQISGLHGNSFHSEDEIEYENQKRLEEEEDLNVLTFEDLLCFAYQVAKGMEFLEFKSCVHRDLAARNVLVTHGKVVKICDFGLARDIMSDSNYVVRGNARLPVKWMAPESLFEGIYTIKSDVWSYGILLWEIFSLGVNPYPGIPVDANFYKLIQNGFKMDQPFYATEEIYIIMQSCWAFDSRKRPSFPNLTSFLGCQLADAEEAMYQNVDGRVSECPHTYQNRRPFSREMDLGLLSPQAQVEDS
Description: (§1) We assessed the selectivity of members of this scaffold using the KINOMEscan methodology across a near comprehensive panel of 442 kinases [[18,27]].

panel of 442 kinases [2] = biological target: T2, panel of 442 kinases (Homo sapiens, UniProt Q86UX6); settings: kinase YANK3; compound concentration 10 µM
T2 construct: purchased KINOMEscan
Description: as §1

panel of 442 kinases [3] = biological target: T3, panel of 442 kinases (Homo sapiens, UniProt Q9H3Y6); settings: kinase SRMS; compound concentration 10 µM
T3 construct: purchased KINOMEscan
Description: as §1

T2 sequence (Q86UX6 whole entry): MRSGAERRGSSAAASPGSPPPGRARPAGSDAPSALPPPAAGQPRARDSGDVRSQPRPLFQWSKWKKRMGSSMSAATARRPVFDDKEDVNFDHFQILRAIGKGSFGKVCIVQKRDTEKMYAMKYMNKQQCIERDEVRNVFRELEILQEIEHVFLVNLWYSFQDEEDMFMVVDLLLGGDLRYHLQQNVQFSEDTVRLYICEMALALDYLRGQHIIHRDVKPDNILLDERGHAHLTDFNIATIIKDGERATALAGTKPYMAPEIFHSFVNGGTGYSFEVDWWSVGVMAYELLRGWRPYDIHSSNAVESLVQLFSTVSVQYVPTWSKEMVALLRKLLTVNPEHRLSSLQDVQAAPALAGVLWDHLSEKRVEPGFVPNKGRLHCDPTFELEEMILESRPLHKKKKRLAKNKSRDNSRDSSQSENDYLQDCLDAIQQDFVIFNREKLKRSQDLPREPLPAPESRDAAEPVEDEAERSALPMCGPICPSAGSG
T3 sequence (Q9H3Y6 whole entry): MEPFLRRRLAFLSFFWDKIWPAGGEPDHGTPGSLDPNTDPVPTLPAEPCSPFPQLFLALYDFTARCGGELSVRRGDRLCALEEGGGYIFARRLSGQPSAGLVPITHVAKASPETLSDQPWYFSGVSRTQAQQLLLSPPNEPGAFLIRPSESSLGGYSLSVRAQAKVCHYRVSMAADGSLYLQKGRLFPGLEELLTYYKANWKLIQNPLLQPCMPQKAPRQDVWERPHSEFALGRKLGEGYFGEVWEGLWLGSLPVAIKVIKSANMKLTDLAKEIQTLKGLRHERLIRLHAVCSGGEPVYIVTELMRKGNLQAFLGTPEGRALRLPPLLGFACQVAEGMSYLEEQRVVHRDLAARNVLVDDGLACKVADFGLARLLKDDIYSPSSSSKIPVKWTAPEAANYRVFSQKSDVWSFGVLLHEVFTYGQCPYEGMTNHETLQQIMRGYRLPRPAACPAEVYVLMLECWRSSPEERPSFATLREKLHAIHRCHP

| SMILES | KINOMEscan: FLT3 (panel of 442 kinases [1]) | % Ctrl, YANK3 (panel of 442 kinases [2]) | % Ctrl, SRMS (panel of 442 kinases [3]) |
| --- | --- | --- | --- |
| COc1cc(C(=O)N2CCC(N3CCN(C)CC3)CC2)ccc1Nc1ncc2c(n1)N(C1CCCC1)c1ccccc1C(=O)N2C [Compound 25, 11-cyclopentyl-2-((2-methoxy-4-(4-(4-methylpiperazin-1-yl)piperidine-1-carbonyl)phenyl)amino)-5-methyl-5H-benzo[e]pyrimido[5,4-b][1,4]diazepin-6(11H)-one] | 100 | 100 % Ctrl | 100 % Ctrl |
| CCOc1cc(C(=O)N2CCC(N3CCN(C)CC3)CC2)ccc1Nc1ncc2c(n1)N(C1CCCC1)c1ccccc1C(=O)N2C [Compound 26] | 100 | 100 % Ctrl | 82 % Ctrl |
| COc1cc(C(=O)N2CCC(N3CCN(C)CC3)CC2)ccc1Nc1ncc2c(n1)N1CCc3cccc(c31)C(=O)N2C [Compound 24] | – | 100 % Ctrl | 100 % Ctrl |
| COc1cc(C(=O)N2CCC(N3CCN(C)CC3)CC2)ccc1Nc1ncc2c(n1)N(C)c1ccccc1C(=O)N2C [15 (LRRK2-IN-1)] | 100 | 100 % Ctrl | 77 % Ctrl |
